This note sets out measurements from patent US7414070B2, “Indol-7-YL sulfonamide derivatives, their preparation and their use in pharmaceutical compositions” (Laboratorios del Dr. ESTEVE S.A., priority 2003, dated 2008).

Structures can show the parent of a compound that is named as a salt.

For orientation: melting point means the temperature, or range, at which the solid turns liquid.

Consider `O=S(=O)(Nc1cccc2ccn(CCN3CCCC3)c12)c1c(Cl)nc2sccn12` (as salt: TFA) [Example 7, 6-chloro-N-(1-(2-(pyrrolidin-1-yl)ethyl)-1H-indol-7-yl)imidazo[2,1-b]thiazole-5-sulfonamide], for which the melting point fell in the range of 92 to 95 °C.

In turn, `Cc1c(S(=O)(=O)Nc2cccc3ccn(CCN(C)C)c23)sc2ccc(Cl)cc12` [Example 2, N-[1-(2-dimethylaminoethyl)-1H-indole-7-yl]-5-chloro-3-methyl-benzo[b]thiophene-2-sulfonamide] returned a melting point of 57 to 65 °C.

`CN(C)CCn1ccc2cccc(NS(=O)(=O)c3ccc(-c4ccccc4)cc3)c21` [Example 3, N-[1-(2-dimethylaminoethyl)-1H-indole-7-yl]-4 phenylbenzenesulfonamide] returned a melting point of 137 to 140 °C.

Take `CN(C)CCn1ccc2cccc(NS(=O)(=O)c3c(Cl)nc4sccn34)c21` [Example 4, N-[1-(2-dimethylaminoethyl)-1H-indole-7-yl]-6-chloroimidazo[2,1-b]thiazole-5-sulfonamide]: the melting point is 73 to 76 °C.

On to `O=S(=O)(Nc1cccc2ccn(CCN3CCCC3)c12)c1cccc2ccccc12` [Example 6, N-(1-(2-(pyrrolidin-1-yl)ethyl)-1H-indol-7-yl)naphthalene-1-sulfonamide], for which the melting point was 196 to 199 °C.

For `O=S(=O)(CCc1cccc2ccccc12)Nc1cccc2ccn(CCN3CCCC3)c12` [Example 8, 2-(naphth-1-yl)-N-(1-(2-(pyrrolidin-1-yl)ethyl)-1H-indol-7-yl)ethansulfonamide], the melting point was 46 to 49 °C.
